Data published in ChEMBL document CHEMBL6096636 (Bioorg Med Chem, 2024).
Calls of active or inactive are those of the source. No cut-off for these calls is given here.

What was measured:
Plasmodium yoelii = assay: Antimalarial activity against erythrocytic stage of Plasmodium yoelli infected in female mouse model assessed as reduction in parasitemia at 30 mg/kg, ip pre-infected with parasite followed by twice daily compound administration from day 3 to 6 by microscopic analysis; format: functional, organism-based; conditions: time 4.0 day
[1] = Selectivity index, ratio of IC50 for HEK293T cells to IC50 for erythrocytic stage of Plasmodium falciparum 3D7; format: toxicity, cell-based; conditions: human, read-out: Ratio IC50
[2] = Cytotoxicity against human HepG2 cells assessed as inhibition of cell growth incubated for 72 hrs by CCK8 assay; format: toxicity, cell-based
[3] = Half-life in female Balb/c mouse at 5 mg/kg, ip measured after 24 hrs by LC-MS/MS analysis; format: ADME, organism-based; conditions: in vivo
Histone deacetylase 1 = Histone deacetylase 1 (Homo sapiens, UniProt Q13547); assay: Inhibition of recombinant human HDAC1 using Ac-peptide as substrate preincubated for 15 mins followed by substrate addition and measured after 60 mins
[4] = Metabolic stability in mouse liver microsomes assessed as half-life measured upto 45 mins in presence of NADPH by LC-MS/MS analysis; format: ADME, Microsome
Histone deacetylase 2 = Histone deacetylase 2 (Homo sapiens, UniProt Q92769); assay: Inhibition of recombinant human HDAC2 using Ac-peptide as substrate preincubated for 15 mins followed by substrate addition and measured after 60 mins
Plasmodium falciparum [5] = assay: microbe, parasite or virus in culture; conditions: Dd2, 72 h
Description: Antimalarial activity against erythrocytic stage of chloroquine-resistant Plasmodium falciparum Dd2 assessed as inhibition of growth incubated for 72 hrs by SYBR green I based assay

Plasmodium falciparum [6] = assay: Antimalarial activity against sulfadoxine-pyrimethamine and mefloquine resistant Plasmodium falciparum clinical isolate CP286 assessed as inhibition of growth incubated for 72 hrs by SYBR green I based assay; format: functional, organism-based
Histone deacetylase 8 = molecular target: T1, Histone deacetylase 8 (Homo sapiens, UniProt Q9BY41); assay: Inhibition of recombinant human HDAC8 using Ac-peptide as substrate preincubated for 15 mins followed by substrate addition for 240 mins and measured after 120 mins of trypsin addition
T1 sequence (Q9BY41 whole entry): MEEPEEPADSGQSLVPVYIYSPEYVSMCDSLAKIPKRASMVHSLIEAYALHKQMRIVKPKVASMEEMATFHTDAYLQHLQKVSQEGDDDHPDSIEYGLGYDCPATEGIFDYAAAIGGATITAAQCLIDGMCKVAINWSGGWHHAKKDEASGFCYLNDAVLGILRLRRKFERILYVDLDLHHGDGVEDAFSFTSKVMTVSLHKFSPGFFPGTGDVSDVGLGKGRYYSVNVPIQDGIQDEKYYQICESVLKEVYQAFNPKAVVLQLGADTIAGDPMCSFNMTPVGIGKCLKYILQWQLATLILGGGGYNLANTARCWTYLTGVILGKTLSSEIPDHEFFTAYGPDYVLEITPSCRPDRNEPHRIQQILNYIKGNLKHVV

[7] = Apparent clearance during terminal phase in female Balb/c mouse at 5 mg/kg, ip measured after 24 hrs by LC-MS/MS analysis; format: ADME, organism-based; conditions: in vivo, read-out: CLz/F (converted)
[8] = Cytotoxicity against HEK293T cells assessed as inhibition of cell growth incubated for 72 hrs by CCK8 assay; format: toxicity, cell-based, HEK-293T; conditions: human
[9] = AUC (0 to t) in female Balb/c mouse at 5 mg/kg, ip measured after 24 hrs by LC-MS/MS analysis; format: ADME, organism-based; conditions: in vivo
[10] = Selectivity index, ratio of IC50 for human HepG2 cells to IC50 for erythrocytic stage of Plasmodium falciparum 3D7; format: toxicity, cell-based; conditions: read-out: Ratio IC50
[11] = AUC (0 to infinity) in female Balb/c mouse at 5 mg/kg, ip measured after 24 hrs by LC-MS/MS analysis; format: ADME, organism-based; conditions: in vivo
[12] = Metabolic stability in mouse liver microsomes assessed as clearance measured upto 45 mins in presence of NADPH by LC-MS/MS analysis; format: ADME, Microsome; conditions: read-out: CLH
Plasmodium falciparum [13] = assay: Inhibition of asynchronous ring stage Plasmodium falciparum 3D7 HDAC assessed as increase in histone H3 acetylation level at 20 times of IC50 concentration incubated for 2 hrs by Western blot analysis
Plasmodium falciparum [14] = assay: microbe, parasite or virus in culture; conditions: 72 h
Description: Antimalarial activity against quinine and chloroquine resistant Plasmodium falciparum clinical isolate C2A assessed as inhibition of growth incubated for 72 hrs by SYBR green I based assay

Plasmodium falciparum [15] = assay: microbe, parasite or virus in culture; conditions: 72 h; remark: listed apart in the source
Description: Antimalarial activity against chloroquine resistant Plasmodium falciparum clinical isolate GB4 assessed as inhibition of growth incubated for 72 hrs by SYBR green I based assay

[16] = molecular target: T2, Protein deacetylase HDAC6 (Homo sapiens, UniProt Q9UBN7); assay: Inhibition of recombinant human HDAC6 using Ac-peptide as substrate preincubated for 15 mins followed by substrate addition and measured after 60 mins
T2 sequence (Q9UBN7 whole entry): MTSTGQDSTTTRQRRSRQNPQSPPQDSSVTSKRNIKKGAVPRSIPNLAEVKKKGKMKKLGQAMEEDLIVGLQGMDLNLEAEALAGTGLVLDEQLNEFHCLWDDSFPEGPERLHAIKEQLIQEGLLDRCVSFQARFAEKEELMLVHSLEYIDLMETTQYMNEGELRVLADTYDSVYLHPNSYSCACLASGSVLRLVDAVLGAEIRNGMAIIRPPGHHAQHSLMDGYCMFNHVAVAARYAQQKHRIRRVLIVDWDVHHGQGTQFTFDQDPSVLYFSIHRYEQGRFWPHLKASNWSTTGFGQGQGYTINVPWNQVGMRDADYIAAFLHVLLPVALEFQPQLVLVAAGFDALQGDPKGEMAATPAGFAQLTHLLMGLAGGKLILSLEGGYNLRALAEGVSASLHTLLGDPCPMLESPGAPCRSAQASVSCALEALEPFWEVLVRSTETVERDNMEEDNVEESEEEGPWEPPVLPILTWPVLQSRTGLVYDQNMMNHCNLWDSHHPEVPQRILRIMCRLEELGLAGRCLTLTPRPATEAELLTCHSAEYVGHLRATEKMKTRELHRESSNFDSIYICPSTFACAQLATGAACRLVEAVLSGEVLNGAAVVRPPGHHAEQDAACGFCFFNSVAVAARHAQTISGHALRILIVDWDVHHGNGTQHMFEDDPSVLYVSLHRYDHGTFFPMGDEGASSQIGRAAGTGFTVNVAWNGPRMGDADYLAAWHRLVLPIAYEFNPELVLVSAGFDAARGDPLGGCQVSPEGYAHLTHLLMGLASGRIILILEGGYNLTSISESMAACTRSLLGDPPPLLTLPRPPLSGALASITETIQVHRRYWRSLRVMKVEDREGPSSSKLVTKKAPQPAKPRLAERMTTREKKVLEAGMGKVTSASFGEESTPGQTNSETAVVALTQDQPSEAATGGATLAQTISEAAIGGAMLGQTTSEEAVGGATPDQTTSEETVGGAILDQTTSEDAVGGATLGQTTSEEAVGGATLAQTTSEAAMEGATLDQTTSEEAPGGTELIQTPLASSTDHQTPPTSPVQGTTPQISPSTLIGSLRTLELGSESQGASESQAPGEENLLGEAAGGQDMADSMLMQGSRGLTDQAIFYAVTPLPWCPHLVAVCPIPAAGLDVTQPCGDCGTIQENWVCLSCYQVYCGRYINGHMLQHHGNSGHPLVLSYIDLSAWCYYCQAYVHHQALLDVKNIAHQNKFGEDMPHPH

[17] = Cmax in female Balb/c mouse at 5 mg/kg, ip measured after 24 hrs by LC-MS/MS analysis; format: ADME, organism-based; conditions: in vivo

Histone deacetylase 1, sequence (Q13547 whole entry): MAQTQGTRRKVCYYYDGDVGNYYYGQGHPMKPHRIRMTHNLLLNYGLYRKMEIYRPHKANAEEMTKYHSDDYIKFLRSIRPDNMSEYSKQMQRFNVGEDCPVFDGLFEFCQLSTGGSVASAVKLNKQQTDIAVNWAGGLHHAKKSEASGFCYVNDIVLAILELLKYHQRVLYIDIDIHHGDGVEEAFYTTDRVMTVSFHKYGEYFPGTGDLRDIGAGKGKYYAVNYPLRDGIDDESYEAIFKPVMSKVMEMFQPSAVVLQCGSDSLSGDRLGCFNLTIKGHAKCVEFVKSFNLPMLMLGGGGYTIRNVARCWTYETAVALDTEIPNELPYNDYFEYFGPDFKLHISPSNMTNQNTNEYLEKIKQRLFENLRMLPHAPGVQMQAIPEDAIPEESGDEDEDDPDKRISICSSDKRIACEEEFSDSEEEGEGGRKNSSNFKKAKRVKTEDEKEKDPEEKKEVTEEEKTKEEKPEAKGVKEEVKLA
Histone deacetylase 2, sequence (Q92769 whole entry): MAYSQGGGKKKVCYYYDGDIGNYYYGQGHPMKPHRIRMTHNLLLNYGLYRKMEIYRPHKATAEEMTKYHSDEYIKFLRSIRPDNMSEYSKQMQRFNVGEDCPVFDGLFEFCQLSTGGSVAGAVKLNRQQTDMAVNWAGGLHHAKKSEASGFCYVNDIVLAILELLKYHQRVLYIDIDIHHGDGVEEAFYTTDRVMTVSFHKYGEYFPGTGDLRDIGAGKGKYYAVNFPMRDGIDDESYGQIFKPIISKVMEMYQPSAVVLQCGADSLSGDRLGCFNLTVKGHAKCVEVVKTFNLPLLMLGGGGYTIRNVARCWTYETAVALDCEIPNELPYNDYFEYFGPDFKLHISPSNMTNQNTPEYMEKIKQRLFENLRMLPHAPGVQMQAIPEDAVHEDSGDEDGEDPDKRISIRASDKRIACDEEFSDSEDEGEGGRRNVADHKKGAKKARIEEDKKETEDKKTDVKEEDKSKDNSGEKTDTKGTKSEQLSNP

## Cc1ccc2c(CN[C@H]3CC[C@@H](Nc4ncc(C(=O)NO)cn4)CC3)cn(C)c2c1.Cl
Plasmodium yoelii
  Activity: Active; Only Slight Recurrence Of Parasitemia Was Observed Upon Cessation Of Treatment
[1]
  selectivity ratio: 687
[2]
  IC50 at 72 h: 5290 nM
[3]
  half-life: 1.9 h
Histone deacetylase 1
  IC50: 4.9 nM
[4]
  half-life: 0.65 h
Histone deacetylase 2
  IC50: 11 nM
Plasmodium falciparum [5]
  IC50: 19.4 nM
Plasmodium falciparum [6]
  IC50: 28.4 nM
Histone deacetylase 8
  IC50: 43 nM
[7]
  CL/F: 97.7 mL/min/kg
[8]
  IC50 at 72 h: 7750 nM
[9]
  AUC(0-t) at 24 h: 833 ng·h/mL
[10]
  selectivity ratio: 469
[11]
  AUC(0-inf): 853 ng·h/mL
[12]
  CLint scaled: 140 mL/min/kg
Plasmodium falciparum [13]
  inhibition: Active
Plasmodium falciparum [14]
  IC50: 24.7 nM
Plasmodium falciparum [15]
  IC50: 29.5 nM
[16]
  IC50: 60 nM
[17]
  Cmax: 803 ng/mL
